# Results reported in patent US20250074919A1, “Heteroaryl compounds as inhibitors of irak4, compositions and applications thereof” (Accro Bioscience (HK) Limited, priority 2021, published 2025).
# Legend:
# IRAK4 [1] = target: T1, IRAK4 (Homo sapiens (Human), UniProt Q9NWZ3); assay: Screening the compounds against IRAK4 with ATP (Caliper, FAM-labeled peptide); format: biochemical; conditions: for activity, times better than that of the positive control compound CA4948: IRAK4 kinase inhibition relative to CA4948; for IC50: read-out: IC50 (nM) (10 μM ATP), IRAK4 kinase, 10 μM ATP
# T1 sequence (Q9NWZ3 whole entry): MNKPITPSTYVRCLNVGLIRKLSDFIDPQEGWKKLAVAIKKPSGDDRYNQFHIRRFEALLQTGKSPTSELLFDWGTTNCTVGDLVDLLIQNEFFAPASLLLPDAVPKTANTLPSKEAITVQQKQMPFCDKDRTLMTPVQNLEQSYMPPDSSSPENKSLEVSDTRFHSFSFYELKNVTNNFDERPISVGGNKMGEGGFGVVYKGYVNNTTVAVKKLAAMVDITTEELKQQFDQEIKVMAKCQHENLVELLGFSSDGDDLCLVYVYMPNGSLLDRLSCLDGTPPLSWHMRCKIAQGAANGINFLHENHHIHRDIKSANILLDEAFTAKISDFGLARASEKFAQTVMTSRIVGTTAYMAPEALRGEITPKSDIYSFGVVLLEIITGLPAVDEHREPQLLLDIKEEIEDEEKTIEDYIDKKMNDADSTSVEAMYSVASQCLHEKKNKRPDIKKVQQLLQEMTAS
# Description: Prepare Ix kinase base buffer and stop buffer for testing kinases: (1) base buffer: 50 mM HEPES (pH 7.5), 0.0015% Brij-35; (2) stop buffer: 100 mM HEPES (pH 7.5), 0.015% Brij-35, 0.2% Coating Reagent #3, 50 mM EDTA. Then prepare compounds for testing: Dilute the compound to 50× of the final desired highest inhibitor concentration in reaction by 100% DMSO. Transfer 100 μL of this compound dilution to a well in a 96-well plate (source plate).
# Serially dilute the compounds by 3-fold for a total of 10 points. Transfer 10 μL of the compound from the source plate to a new 96-well plate (intermediate plate) and add 90 μL of Ix kinase buffer. Shake the mixture on the intermediate plate for 10 min. Transfer 5 μL of each well from the 96-well intermediate plate to a 384-well plate in duplicates. Add 10 μL of 2.5× enzyme solution to each well of the 384-well assay plate and incubate at room temperature for 10 min. Add 10 μL, of 2.5×FAM-labeled peptide and ATP solution and incubate at 28° C. for a period of time. Finally stop the reaction by adding 30 μL of stop buffer and collect data on Caliper to obtain the IC50.
# [2] = Metabolic stability in mouse liver microsomes; format: in vitro ADME, CD-1 Mouse; conditions: for half-life: CD-1 mouse liver microsomes, NADPH, 37° C., read-out: Mouse microsome (t1/2)
# Description: (§1) The appropriate concentrations of microsomes working solutions (0.56 mg/mL) were prepared in potassium phosphate buffer. The test compounds were incubated with Human, SD Rat, CD-1 Mouse and Beagle Dog liver microsomes for 10 min at 37° C. with constant shaking. The reaction was initiated by the addition of nicotinamide adenine dinucleotide phosphate (NADPH) cofactor after a 10 min pre-incubation. At 5, 15, 30, 45, and 60 min, the samples were taken and placed into the stop solution (Cold acetonitrile containing 200 ng/mL tolbutamide and 200 ng/mL labetalol as internal standards). All sampling plates were shaken for 10 min, then centrifuged at 4000 rpm for 20 minutes at 4° C. Each supernatant of bioanalysis plate was sealed and shaken for 10 minutes prior to LC-MS analysis.
# [3] = Metabolic stability in rat liver microsomes; format: in vitro ADME, SD Rat; conditions: for half-life: SD rat liver microsomes, NADPH, 37° C., read-out: Rat microsome (t1/2)
# Description: as §1
# [4] = Metabolic stability in human liver microsomes; format: in vitro ADME; conditions: for half-life: NADPH, 37° C., read-out: Human microsome (t1/2)
# Description: as §1
# [5] = Metabolic stability in dog liver microsomes; format: in vitro ADME, Beagle Dog; conditions: for half-life: Beagle dog liver microsomes, NADPH, 37° C., read-out: Dog microsome (t1/2)
# Description: as §1
# IRAK4 [6] = target: T1, IRAK4; assay: Kinase binding ability (KINOMEscan site-directed competition binding assay)
# Description: The Equilibrium dissociation constant reflected the test compound's kinase binding (Kd). The KINOMEscan, a site-directed competition binding assay, was used to measure interactions between test compounds and specific kinases. The kinase-tagged T7 phage strains were derived from the BL21 strain's E. coli host. T7 phage was used to infect E. coli, which was then incubated until lysis occurred. The remaining kinases were produced in HEK-293 cells and tagged with DNA. To create affinity resins for kinase, streptavidin-coated magnetic beads were treated with biotinylated small molecule ligands. The assay consists of three components: a DNA-tagged kinase, an immobilized ligand, and the test compound. An immobilized ligand could compete with the compound binding the kinase active site. The affinity beads were washed with wash buffer and re-suspended in elution buffer following reactions in a polypropylene 384-well plate. qPCR of the kinase-DNA tag was used to assess the test compound's ability to bind with the selected kinase. The assay was carried out in accordance with the manufacturer's instructions (Eurofins DiscoverX Corporation).
# Binding constants (Kd) were calculated with a standard dose-response curve using the Hill equation: […]
smiles,measurement,setting,value
"COC1CCN(c2nc3nc(N4CCOCC4)oc3cc2C(=O)Nc2cccc(-c3cnn(C)c3)n2)CC1 [Compound A24, 5-(4-Methoxypiperidin-1-yl)-N-(6-(1-methyl-1H-pyrazol-4-yl)pyridin-2-yl)-2-morpholinooxazolo[4,5-b]pyridine-6-carboxamide]","activity, times better than that of the positive control compound CA4948",IRAK4 [1],more than 25 times
same,IC50,IRAK4 [1],4.1 nM
same,half-life,[2],1.48 h
same,metabolic stability in liver microsomes of mouse (in words),[2],good metabolism
same,half-life,[3],1.27 h
same,metabolic stability in liver microsomes of rat (in words),[3],moderate metabolic stability
same,metabolic stability in liver microsomes of human (in words),[4],good metabolism
same,half-life,[4],1.95 h
same,half-life,[5],1.13 h
same,metabolic stability in liver microsomes of dog (in words),[5],moderate metabolic stability
"CC(C)Oc1nc2c(cc1C(=O)Nc1cccc(-c3cnn(C)c3)n1)CC(C)(C)O2 [Compound B13, 6-Isopropoxy-2,2-dimethyl-N-(6-(1-methyl-1H-pyrazol-4-yl)pyridin-2-yl)-2,3-dihydrofuro[2,3-b]pyridine-5-carboxamide]",IC50,IRAK4 [1],6.2 nM
"Cl.Cn1cc(-c2cccc(NC(=O)c3cc4oc(N5CCOCC5)nc4nc3N3CCN(C4CC4)CC3)n2)cn1 [Compound A35, 5-(4-Cyclopropylpiperazin-1-yl)-N-(6-(1-methyl-1H-pyrazol-4-yl)pyridin-2-yl)-2-morpholinooxazolo[4,5-b]pyridine-6-carboxamide Hydrochloride]","activity, times better than that of the positive control compound CA4948",IRAK4 [1],more than 10 times
same,IC50,IRAK4 [1],8.9 nM
"Cn1cc(-c2cccc(NC(=O)c3cc4oc(N5CCOCC5)nc4nc3N3CCNCC3)n2)cn1 [Compound A13, N-(6-(1-Methyl-1H-pyrazol-4-yl)pyridin-2-yl)-2-morpholino-5-(piperazin-1-yl)oxazolo[4,5-b]pyridine-6-carboxamide]",IC50,IRAK4 [1],304 nM
"Cn1cc(-c2cccc(NC(=O)c3cc4oc(N5CCOCC5)nc4nc3N3CCN4CCC[C@H]4C3)n2)cn1 [Compound A27, (S)-5-(Hexahydropyrrolo[1,2-a]pyrazin-2(1H)-yl)-N-(6-(1-methyl-1H-pyrazol-4-yl)pyridin-2-yl)-2-morpholinooxazolo[4,5-b]pyridine-6-carboxamide]",IC50,IRAK4 [1],81 nM
"Cn1cc(-c2cccc(NC(=O)c3cc4oc(N5CCOCC5)nc4nc3N3C4CCC3CC(O)C4)n2)cn1 (centres unmarked) [Compound A28, 5-(3-Hydroxy-8-azabicyclo[3.2.1]octan-8-yl)-N-(6-(1-methyl-1H-pyrazol-4-yl)pyridin-2-yl)-2-morpholinooxazolo[4,5-b]pyridine-6-carboxamide]",IC50,IRAK4 [1],80 nM
"COc1ncccc1NC(=O)c1cc2oc(N3CCOCC3)nc2nc1N1CCC(OC)CC1 [Compound A50, 5-(4-Methoxypiperidin-1-yl)-N-(2-methoxypyridin-3-yl)-2-morpholinooxazolo[4,5-b]pyridine-6-carboxamide]",IC50,IRAK4 [1],98 nM
"Cn1cc(-c2cccc(NC(=O)c3cc4oc(N5CCOCC5)nc4nc3N3CCCC(O)C3)n2)cn1 (centres unmarked) [Compound A16, 5-(3-Hydroxypiperidin-1-yl)-N-(6-(1-methyl-1H-pyrazol-4-yl)pyridin-2-yl)-2-morpholinooxazolo[4,5-b]pyridine-6-carboxamide]",IC50,IRAK4 [1],31 nM
"COc1cccc(NC(=O)c2cc3oc(N4CCOCC4)nc3nc2N2CCC(O)CC2)n1 [Compound A43, 5-(4-Hydroxypiperidin-1-yl)-N-(6-methoxypyridin-2-yl)-2-morpholinooxazolo[4,5-b]pyridine-6-carboxamide]",IC50,IRAK4 [1],137 nM
"Cn1cc(-c2cccc(NC(=O)c3cc4oc(N5CCOCC5)nc4nc3N3CC[C@@H](O)C3)n2)cn1 [Compound A1, (R)-5-(3-hydroxypyrrolidin-1-yl)-N-(6-(1-methyl-1H-pyrazol-4-yl)pyridin-2-yl)-2-morpholinooxazolo[4,5-b]pyridine-6-carboxamide]",IC50,IRAK4 [1],405 nM
same,half-life,[2],> 2.42 h
same,metabolic stability in liver microsomes of mouse (in words),[2],good metabolic stability
same,binding affinities to IRAK4 (in words),IRAK4 [6],high binding affinities
same,Kd,IRAK4 [6]; Kd between IRAK4 and compound,29 nM
same,half-life,[3],> 2.42 h
same,metabolic stability in liver microsomes of rat (in words),[3],good metabolic stability
same,metabolic stability in liver microsomes of human (in words),[4],good metabolic stability
same,half-life,[4],> 2.42 h
same,half-life,[5],> 2.42 h
same,metabolic stability in liver microsomes of dog (in words),[5],good metabolic stability
"Cn1cc(-c2cccc(NC(=O)c3cc4c(nc3OCC3CC3)OC(C)(C)C4)n2)cn1 [Compound B24, 6-(Cyclopropylmethoxy)-2,2-dimethyl-N-(6-(1-methyl-1H-pyrazol-4-yl)pyridin-2-yl)-2,3-dihydrofuro[2,3-b]pyridine-5-carboxamide]",IC50,IRAK4 [1],11 nM
"Cn1cc(-c2cccc(NC(=O)c3cc4c(nc3OC3CCOCC3)OC(C)(C)C4)n2)cn1 [Compound B23, 2,2-Dimethyl-N-(6-(1-methyl-1H-pyrazol-4-yl)pyridin-2-yl)-6-((tetrahydro-2H-pyran-4-yl)oxy)-2,3-dihydrofuro[2,3-b]pyridine-5-carboxamide]",IC50,IRAK4 [1],11 nM
"Cn1cc(-c2cccc(NC(=O)c3cc4oc(N5CCOCC5)nc4nc3N3CCC(F)(F)CC3)n2)cn1 [Compound A11, 5-(4,4-Difluoropiperidin-1-yl)-N-(6-(1-methyl-1H-pyrazol-4-yl)pyridin-2-yl)-2-morpholinooxazolo[4,5-b]pyridine-6-carboxamide]","activity, times better than that of the positive control compound CA4948",IRAK4 [1],more than 5 times
same,IC50,IRAK4 [1],22 nM
"COc1ncccc1NC(=O)c1cc2oc(N3CCOCC3)nc2nc1N1CCC(O)CC1 [Compound A45, 5-(4-Hydroxypiperidin-1-yl)-N-(2-methoxypyridin-3-yl)-2-morpholinooxazolo[4,5-b]pyridine-6-carboxamide]",IC50,IRAK4 [1],131 nM
